According to paper PMC7170309, “Imidazopyridine-fused [1,3]diazepinones: modulations of positions 2 to 4 and their impacts on the anti-melanoma activity” (Journal of Enzyme Inhibition and Medicinal Chemistry, 2020):
Read-outs that look alike come from different tables or passages of the source.

Columns and labels:
[1] = system: MDA-MB-435 melanoma cells; design: method as in PMID 27871038; details: previously described naphthyl analogues; read-out: IC50 on MDA-MB-435 cell line; cited from earlier work
[2] = system: A375 melanoma cells; assay: Neutral red uptake (NRU) viability assay, A375; assay type: cell-based, human; details: for IC50: Homo sapiens, A-375, 72 h, mean ± SD of three experiments; for cytotoxic activity on A375 (in words): up to 40 µM
Method: (§1) Melanoma human cancer cell line (A375 and MDA-MB-435) were obtained from ATCC. The NIH-3T3 cell line was generously gifted by the ANSM (French National Agency for Medicines and Health Products Safety, Vendargues, France). Cells were cultured in Dulbecco’s Modified Eagle Medium (DMEM, Sigma Aldrich) supplemented with 10% heat-inactivated foetal calf serum (FCS, Gibco), 2 mM glutamax (Gibco), 100 IU/mL penicillin G sodium (Sigma Aldrich), 100 lU/mL streptomycin sulphate (Sigma Aldrich). The cells were allowed to grow at 37 °C in a fully humidified atmosphere containing 5% CO2.
(§2) A viability assay was used to evaluate the cytotoxic activity on A375 and MDA-MB-435 melanoma cells as previously described. According to OCDE/ICCVAM guidance n°129, NRU assay was also used to evaluate the toxicity on the non-cancerous NIH-3T3 cells. Cells were seeded at a final concentration of 2000 cells/well (A375), 3000 cells/well (NIH-3T3) or 7500 cells/well (MDA-MB-435) in 96-well microtiter plates for 24 h. Then, cells were exposed to two negative controls (1% DMSO in culture medium (vehicle) and culture medium alone), or to different compounds freshly dissolved in DMSO, in a range of concentration from 0.01 to 40 µM (six wells per concentration). After 72 h of incubation, cells were stained with new medium containing 50 µg/mL of neutral red (3-amino-7-dimethylamino-2-methylphenazine hydrochloride, Sigma Aldrich) at 37 °C for 2 h. The neutral red medium solution was then removed and the wells were washed with PBS. Finally, 100 µL of solution containing ethanol, acetic acid and water (50/1/49 v/v/v respectively) were added into the wells and the absorbance was measured at 540 nm using the microplate reader 352 Multiscan MS (Labsystems). Cell survival rates were normalised to the absorbance values of untreated control cells. IC50 was obtained using a logistic regression model on Graphpad Prism 5.0 software. Results are given as the mean ± standard deviation (SD) of three independent experiments. Statistical analysis was performed using the Student’s t-test.

[3] = system: MDA-MB-435 melanoma cells; assay: Neutral red uptake (NRU) viability assay, MDA-MB-435; assay type: cell-based, human; details: for IC50: Homo sapiens, MDA-MB-435, 72 h, mean ± SD of three experiments; for IC50 / cytotoxic activity on MDA-MB-435 (in words): NRU assay; for cytotoxic activity on MDA-MB-435 (in words): up to 40 µM; for times less active on MDA-MB-435 than on A375 cells: ratio of NRU IC50 values
Method: as §1, §2

[4] = system: NIH-3T3 non-cancerous cells; assay: Neutral red uptake (NRU) toxicity assay, NIH-3T3; assay type: cell-based; details: non-cancerous mouse fibroblasts
Method: as §1, §2
Then, all active compounds on the two melanoma cell lines (IC50 < 40 µM) were assessed on the NIH-3T3 mouse fibroblast cell line, in order to check the toxicity of our compounds on non-cancerous cells. […] As a possible modification of the mechanism of action was hypothesised for these two derivatives (see above), this phenomenon could probably be also correlated with the cytotoxicity observed on the NIH-3T3 cell line.

[5] = Calculated physicochemical parameters (molsoft cheminformatic tool); details: predicted
Method: Data set of physicochemical properties (cLogP, TPSA and molecular volume, Table 2) were calculated using the online available molsoft cheminformatic tool[23]. IC50 values of the compounds included in the test are presented in Table 1 for the correlations between IC50 and physicochemical properties of compounds modified in position 2 (Figure 2), and in Table S1 (SI) for the correlations between in vitro anti-cancer activity of JMV5038, compound 5 and […] on the NCI cell line panel (Figure 4). Pearson’s correlation coefficient r and level of significant p values were calculated using Origin Pro 2019.

[6] = Hydrolysis of ester 19 into acid 21 in the presence of melanoma cells and culture medium (HPLC-MS); assay type: in vitro ADME; details: after 72 h in the presence of melanoma cells and culture medium
From the text: Then, we turned our attention to the SAR study of the position 4 of the diazepine ring, keeping constant the 4-bromophenyl group at R^2 (i.e. compounds 13–17 and 19–22). […] Introduction of a ramified isobutyl chain (compound 15) led also to a loss of the activity (entry 13, Table 1). […] In the same way, a less flexible chain bearing an alkyne group (compound 14) was not tolerated, as well as a long chain (compound 22) (Table 1, entries 12 and 20 respectively).

C[C@@H]1NC(c2ccc(C#C[Si](C)(C)C)cc2)=Nc2nc3ccccn3c2C1=O
melting point: 115 to 116 °C

CC1NC(c2cccc3ccccc23)=Nc2nc3ccccn3c2C1=O (stereo not drawn) [1-naphthyl derivative]
IC50 [1]: 1.4 µM

CC1NC(c2ccc3ccccc3c2)=Nc2nc3ccccn3c2C1=O (stereo not drawn) [2-naphthyl derivative]
IC50 [1]: 1.4 µM

C#Cc1ccc(C2=Nc3nc4ccccn4c3C(=O)[C@H](C)N2)cc1 [4′, (4S)-4-methyl-2–(4-ethynylphenyl)-3,4-dihydro-5H-pyrido[1’,2’:1,2]imidazo[4,5-d][1,3]diazepin-5-one]
IC50 [2]: 10.2 ± 0.55 µM
IC50 [3]: 5.14 ± 0.08 µM
IC50 ([4]; Mus musculus, NIH3T3, 72 h): > 40 µM
molecular volume increase compared to JMV5038 [5]: 2%
melting point: 128 to 129 °C

C[C@@H]1NC(c2c[nH]c3ccccc23)=Nc2nc3ccccn3c2C1=O [9′, (4S)-4-methyl-2-indol-3-yl-3,4-dihydro-5H-pyrido[1’,2’:1,2]imidazo[4,5-d][1,3]diazepin-5-one]
IC50 [2]: > 40 µM
cytotoxic activity on A375 (in words) [2]: totally inactive
IC50 [3]: > 40 µM
cytotoxic activity on MDA-MB-435 (in words) [3]: totally inactive
melting point: 164.5 to 165.5 °C

C[C@@H]1NC(c2ccc(C(=O)c3ccccc3)cc2)=Nc2nc3ccccn3c2C1=O [Compound 6, (4S)-4-methyl-2-(4-benzoylphenyl)-3,4-dihydro-5H-pyrido[1’,2’:1,2]imidazo[4,5-d][1,3]diazepin-5-one]
IC50 [2]: > 40 µM
cytotoxic activity on A375 (in words) [2]: totally inactive
IC50 [3]: > 40 µM
cytotoxic activity on MDA-MB-435 (in words) [3]: totally inactive
melting point: 132 to 133 °C

C[C@@H]1NC(c2coc3ccccc23)=Nc2nc3ccccn3c2C1=O [Compound 7, (4S)-4-methyl-2-benzofuran-3-yl-3,4-dihydro-5H-pyrido[1’,2’:1,2]imidazo[4,5-d][1,3]diazepin-5-one]
IC50 [2]: 8.47 ± 0.21 µM
IC50 [3]: 25.92 ± 0.17 µM
times less active on MDA-MB-435 than on A375 cells [3]: around 3
IC50 ([4]; Mus musculus, NIH3T3, 72 h): > 40 µM
melting point: 164 to 165 °C

C[C@@H]1NC(c2cn(C(=O)OC(C)(C)C)c3ccccc23)=Nc2nc3ccccn3c2C1=O [Compound 9, (4S)-4-methyl-2-(1-boc-indol-3-yl)-3,4-dihydro-5H-pyrido[1’,2’:1,2]imidazo[4,5-d][1,3]diazepin-5-one]
melting point: 155 to 157 °C

C[C@@H]1NC(c2ccc3ncccc3c2)=Nc2nc3ccccn3c2C1=O [Compound 10, (4S)-4-methyl-2-quinolin-6-yl-3,4-dihydro-5H-pyrido[1’,2’:1,2]imidazo[4,5-d][1,3]diazepin-5-one]
IC50 [2]: 9.76 ± 0.95 µM
IC50 [3]: 35.49 ± 0.21 µM
times less active on MDA-MB-435 than on A375 cells [3]: around 3
IC50 ([4]; Mus musculus, NIH3T3, 72 h): > 40 µM
melting point: 165 to 166 °C

C[C@@H]1NC(c2ccc3ccccc3n2)=Nc2nc3ccccn3c2C1=O [Compound 11, (4S)-4-methyl-2-quinolin-2-yl-3,4-dihydro-5H-pyrido[1’,2’:1,2]imidazo[4,5-d][1,3]diazepin-5-one]
IC50 [2]: 15.6 ± 0.7 µM
IC50 [3]: 30.71 ± 0.19 µM
times less active on MDA-MB-435 than on A375 cells [3]: around 3
IC50 ([4]; Mus musculus, NIH3T3, 72 h): > 40 µM
melting point: 170 to 171 °C

C[C@@H]1NC(c2ccc3oc(=O)ccc3c2)=Nc2nc3ccccn3c2C1=O [Compound 12, (4S)-4-methyl-2-coumarin-6-yl-3,4-dihydro-5H-pyrido[1’,2’:1,2]imidazo[4,5-d][1,3]diazepin-5-one]
IC50 [2]: > 40 µM
cytotoxic activity on A375 (in words) [2]: totally abolished the activity
IC50 [3]: > 40 µM
cytotoxic activity on MDA-MB-435 (in words) [3]: totally abolished the activity
melting point: 132.5 to 133.5 °C

CCCC[C@@H]1NC(c2ccc(Br)cc2)=Nc2nc3ccccn3c2C1=O [Compound 13, (4S)-4-butyl-(4-bromophenyl)-3,4-dihydro-5H-pyrido[1’,2’:1,2]imidazo[4,5-d][1,3]diazepin-5-one]
IC50 [2]: 15.3 ± 1.29 µM
IC50 [3]: 30.83 ± 0.09 µM
IC50 ([4]; Mus musculus, NIH3T3, 72 h): > 40 µM

C#CC[C@@H]1NC(c2ccc(Br)cc2)=Nc2nc3ccccn3c2C1=O [Compound 14, (4S)-4-propargyl-2-(4-bromophenyl)-3,4-dihydro-5H-pyrido[1’,2’:1,2]imidazo[4,5-d][1,3]diazepin-5-one]
IC50 [2]: > 40 µM
IC50 [3]: > 30 µM

CC(C)C[C@@H]1NC(c2ccc(Br)cc2)=Nc2nc3ccccn3c2C1=O [Compound 15, (4S)-4-isobutyl-2-(4-bromophenyl)-3,4-dihydro-5H-pyrido[1’,2’:1,2]imidazo[4,5-d][1,3]diazepin-5-one]
IC50 [2]: > 40 µM
IC50 [3]: > 30 µM
melting point: 72 to 73 °C

[N-]=[N+]=NCCCC[C@H]1NC(c2ccc(Br)cc2)=Nc2nc3ccccn3c2C1=O [Compound 17, (4R)-4-(4-azidobutyl)-2-(4-bromophenyl)-3,4-dihydro-5H-pyrido[1’,2’:1,2]imidazo[4,5-d][1,3]diazepin-5-one]
IC50 [2]: 8.54 ± 0.22 µM
IC50 [3]: 30.9 ± 0.11 µM
IC50 ([4]; 72 h): 13.7 ± 0.34 µM
IC50 ([4]; Mus musculus, NIH3T3, 72 h): ~10 µM

[N-]=[N+]=NCCCC[C@@H]1NC(c2ccccc2)=Nc2nc3ccccn3c2C1=O [Compound 18, (4S)-4-(4-azidobutyl)-2-phenyl-3,4-dihydro-5H-pyrido[1’,2’:1,2]imidazo[4,5-d][1,3]diazepin-5-one]
IC50 [2]: > 40 µM
cytotoxic activity on A375 (in words) [2]: totally inactive
IC50 [3]: > 40 µM
cytotoxic activity on MDA-MB-435 (in words) [3]: totally inactive
melting point: 116 to 117 °C

O=C(C[C@@H]1NC(c2ccc(Br)cc2)=Nc2nc3ccccn3c2C1=O)OCc1ccccc1 [Compound 19, (4S)-benzyl [2-(4-bromophenyl)-5-oxo-4,5-dihydro-3H-pyrido[1’,2’:1,2]imidazo[4,5-d][1,3]diazepin-4-yl]acetate]
IC50 [2]: 9.78 ± 0.83 µM
IC50 [3]: 19.4 ± 0.64 µM
IC50 ([4]; Mus musculus, NIH3T3, 72 h): > 40 µM
hydrolysis rate (conversion into acid 21) [6]: 65.5%
melting point: 72.5 to 73.5 °C

O=C1c2c(nc3ccccn23)N=C(c2ccc(Br)cc2)N2CCC[C@@H]12 [Compound 20, 7–(4-bromophenyl)-9,10,11,11a-tetrahydro-12H-pyrido[2’,1’:2,3]imidazo[4,5-f]pyrrolo[1,2-c][1,3]diazepin-12-one]
IC50 [2]: > 40 µM
IC50 [3]: > 40 µM

O=C(O)C[C@@H]1NC(c2ccc(Br)cc2)=Nc2nc3ccccn3c2C1=O [Compound 21, (4S)-[2-(4-bromophenyl)-5-oxo-4,5-dihydro-3H-pyrido[1’,2’:1,2]imidazo[4,5-d][1,3]diazepin-4-yl]acetic acid]
IC50 [2]: > 40 µM
cytotoxic activity on A375 (in words) [2]: inactive
IC50 [3]: > 40 µM
cytotoxic activity on MDA-MB-435 (in words) [3]: inactive

C#CCCC(=O)NCCCC[C@@H]1NC(c2ccc(Br)cc2)=Nc2nc3ccccn3c2C1=O [Compound 22, (4S)-N-{4-[2-(4-bromophenyl)-5-oxo-4,5-dihydro-3H-pyrido[1’,2’:1,2]imidazo[4,5-d][1,3]diazepin-4-yl]butyl}pent-4-ynamide]
IC50 [2]: > 40 µM
IC50 [3]: > 40 µM
